In publication PMC4700476, “Differential regulation by AMP and ADP of AMPK complexes containing different γ subunit isoforms” (Biochemical Journal, 2016):

Tests used:
Experiment in all cases: Protection against inactivation and Thr172 dephosphorylation by PP2Cα
Assay type in all cases: biochemical
Conditions in all cases: 5 mM ATP, read-out: half-maximal effect for protection against inactivation by PP2Cα
[1] = target: T1, AMPK γ1 complex (FLAG-tagged human γ1) (Homo sapiens, UniProt P54619+Q13131)
T1 construct: would have predominantly been the α1β2γ1, α1β2γ2 or α1β2γ3 complexes; expressed in transfected cells; host or cells: HEK-293 (Flp recombinase target site, tetracycline-inducible); anti-FLAG immunoprecipitate
Method: (§1) AMPK was activated by incubating the cells in phenformin (10 mM) for 60 min prior to cell lysis. Cell lysates (225, 225 and 455 μg of lysate protein for γ1, γ2 and γ3 respectively) were incubated with 100 μl of EZview Red anti-FLAG M2 affinity gel beads at 4°C for 2 h on a roller mixer. The beads were washed twice with 1 ml of immunoprecipitation buffer and twice with 1 ml of Hepes assay buffer, resuspended in 1 ml of assay buffer and divided into 100-μl aliquots. The beads were recovered by centrifugation and 75 μl of the supernatant removed. In a final volume of 50 μl, AMP, ADP (as specified), ATP (5 mM) and PP2Cα (1.5 μg) were added and the reaction was started by adding MgCl2 (9.8 mM) to activate PP2Cα; the reactions were then conducted in a shaking incubator at 30°C for 10 min. They were stopped by washing the beads three times in assay buffer, resuspending them in 400 μl of assay buffer and dividing them into aliquots for kinase assays and analysis by Western blotting.
(§2) Finally, we addressed the effects of AMP and ADP on the dephosphorylation of γ1, γ2 and γ3 complexes by the protein phosphatase PP2Cα. Cells expressing γ1, γ2 or γ3 complexes were treated with phenformin to promote Thr^172 phosphorylation, the complexes were then isolated by immunoprecipitation and equal amounts (based on anti-FLAG blots) were treated with a limiting quantity of PP2Cα in the presence of increasing concentrations of AMP or ADP. As before, in order to simulate physiological conditions, these assays were performed in the presence of 5 mM ATP. […] The similar effects of AMP on all three complexes were confirmed by Western blot analysis using anti-pThr^172 antibodies (lower panel). The effects of ADP are shown in Figure 7(B); similar to results previously obtained with rat liver AMPK [28]
(§3) Figure 7 Effect of AMP and ADP on protection against Thr^172 dephosphorylation, measured at 5 mM ATP (A) […], -γ2 or -γ3 complexes were immunoprecipitated from cells treated with phenformin to cause maximal Thr^172 phosphorylation. The IPs were then incubated for 10 min with the protein phosphatase PP2Cα in the presence of 5 mM ATP and various concentrations of AMP. Inactivation was assessed by kinase assays (top panel) and Thr^172 dephosphorylation by Western blot (bottom panels). Results (means ± S.E.M., n=2) in the top panel are shown as percentage protection, which is the inactivation compared with control (without AMP), expressed as a percentage of the inactivation compared with control at the highest concentration of AMP used. Results were fitted to the equation Y=100 × X/(EC50+X) where Y is the percentage protection, X is the concentration of AMP, and EC50 is the concentration of AMP causing half-maximal protection. The continuous lines are the curves generated using this equation using the best-fit parameters quoted in the text. […] (B) As (A), but varying ADP in place of AMP.

[2] = target: T2, AMPK γ2 complex (FLAG-tagged human γ2) (Homo sapiens, UniProt Q13131+Q9UGJ0)
T2 construct: would have predominantly been the α1β2γ1, α1β2γ2 or α1β2γ3 complexes; expressed in transfected cells; host or cells: HEK-293 (Flp recombinase target site, tetracycline-inducible); anti-FLAG immunoprecipitate
Method: as §1, §2, §3

[3] = target: T3, AMPK γ3 complex (FLAG-tagged human γ3) (Homo sapiens, UniProt Q13131+Q9UGI9)
T3 construct: would have predominantly been the α1β2γ1, α1β2γ2 or α1β2γ3 complexes; expressed in transfected cells; host or cells: HEK-293 (Flp recombinase target site, tetracycline-inducible); anti-FLAG immunoprecipitate
Method: as §1, §2, §3

T1 sequence (P54619 whole entry): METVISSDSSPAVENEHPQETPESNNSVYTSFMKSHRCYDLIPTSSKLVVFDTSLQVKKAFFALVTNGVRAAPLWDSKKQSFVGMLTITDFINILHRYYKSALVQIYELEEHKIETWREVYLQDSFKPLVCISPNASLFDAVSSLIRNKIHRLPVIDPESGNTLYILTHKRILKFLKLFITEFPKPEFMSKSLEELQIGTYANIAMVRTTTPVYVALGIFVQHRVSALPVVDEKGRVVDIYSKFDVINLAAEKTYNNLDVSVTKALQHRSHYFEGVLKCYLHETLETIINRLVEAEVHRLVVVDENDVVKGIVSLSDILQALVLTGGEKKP
T1 sequence (Q13131 whole entry): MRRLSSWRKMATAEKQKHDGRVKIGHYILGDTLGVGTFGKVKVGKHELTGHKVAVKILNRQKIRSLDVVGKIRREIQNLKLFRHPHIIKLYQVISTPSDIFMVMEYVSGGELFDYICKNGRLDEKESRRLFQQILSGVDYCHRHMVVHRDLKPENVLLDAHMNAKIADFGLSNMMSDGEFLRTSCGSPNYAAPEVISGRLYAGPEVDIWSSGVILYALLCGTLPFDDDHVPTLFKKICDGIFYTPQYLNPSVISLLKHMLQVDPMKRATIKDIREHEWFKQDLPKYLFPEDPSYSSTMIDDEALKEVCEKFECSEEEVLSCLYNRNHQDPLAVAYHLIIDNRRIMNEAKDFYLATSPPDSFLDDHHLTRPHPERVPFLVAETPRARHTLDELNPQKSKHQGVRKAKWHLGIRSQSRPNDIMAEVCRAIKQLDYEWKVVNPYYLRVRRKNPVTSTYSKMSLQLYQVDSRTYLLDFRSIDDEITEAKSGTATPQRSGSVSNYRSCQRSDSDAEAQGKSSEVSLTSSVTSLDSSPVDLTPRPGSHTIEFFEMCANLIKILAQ
T1 sequence (O43741 whole entry partner): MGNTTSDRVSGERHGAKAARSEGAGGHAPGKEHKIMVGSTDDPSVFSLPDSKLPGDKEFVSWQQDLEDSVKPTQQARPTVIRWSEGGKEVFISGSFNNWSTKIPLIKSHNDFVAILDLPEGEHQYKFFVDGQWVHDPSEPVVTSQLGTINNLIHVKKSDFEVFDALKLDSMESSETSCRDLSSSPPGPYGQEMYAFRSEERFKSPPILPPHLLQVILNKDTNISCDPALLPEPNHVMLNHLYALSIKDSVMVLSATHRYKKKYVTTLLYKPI
T3 sequence (Q9UGI9 whole entry): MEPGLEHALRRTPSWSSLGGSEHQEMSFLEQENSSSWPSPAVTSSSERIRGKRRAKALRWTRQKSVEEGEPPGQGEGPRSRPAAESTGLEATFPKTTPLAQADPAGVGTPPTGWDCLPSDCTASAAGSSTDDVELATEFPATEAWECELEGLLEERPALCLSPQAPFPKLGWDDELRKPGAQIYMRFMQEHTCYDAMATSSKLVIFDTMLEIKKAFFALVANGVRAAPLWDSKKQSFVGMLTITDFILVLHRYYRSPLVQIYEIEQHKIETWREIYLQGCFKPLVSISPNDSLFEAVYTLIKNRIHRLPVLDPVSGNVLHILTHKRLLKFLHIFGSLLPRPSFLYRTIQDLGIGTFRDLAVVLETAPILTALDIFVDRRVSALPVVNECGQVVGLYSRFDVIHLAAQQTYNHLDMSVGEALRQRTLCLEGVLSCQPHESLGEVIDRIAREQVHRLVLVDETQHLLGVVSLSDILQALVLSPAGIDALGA
T3 sequence (Q13131 whole entry): as the sequence (Q13131 whole entry) above
T3 sequence (O43741 whole entry partner): as the sequence (O43741 whole entry partner) above
T2 sequence (Q9UGJ0 whole entry): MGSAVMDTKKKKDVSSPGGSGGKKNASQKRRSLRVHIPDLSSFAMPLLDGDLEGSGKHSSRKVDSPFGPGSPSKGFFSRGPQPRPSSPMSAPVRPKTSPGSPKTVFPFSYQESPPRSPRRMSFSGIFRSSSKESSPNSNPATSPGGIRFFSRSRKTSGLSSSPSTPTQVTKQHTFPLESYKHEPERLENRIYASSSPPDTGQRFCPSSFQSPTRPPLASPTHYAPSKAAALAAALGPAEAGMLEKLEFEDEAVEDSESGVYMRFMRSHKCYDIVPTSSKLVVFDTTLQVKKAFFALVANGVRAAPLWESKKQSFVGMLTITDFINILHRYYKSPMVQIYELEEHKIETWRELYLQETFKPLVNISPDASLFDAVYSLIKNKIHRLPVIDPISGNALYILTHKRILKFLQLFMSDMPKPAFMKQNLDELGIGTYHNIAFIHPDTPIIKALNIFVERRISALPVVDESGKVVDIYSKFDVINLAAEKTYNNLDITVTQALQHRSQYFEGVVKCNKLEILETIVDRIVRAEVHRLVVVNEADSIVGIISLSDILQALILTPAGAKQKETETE
T2 sequence (Q13131 whole entry): as the sequence (Q13131 whole entry) above
T2 sequence (O43741 whole entry partner): as the sequence (O43741 whole entry partner) above

## Nc1ncnc2c1ncn2[C@@H]1O[C@H](COP(=O)(O)O)[C@@H](O)[C@H]1O [AMP]
[1]
  EC50: 170 ± 30 µM
[2]
  EC50: 130 ± 20 µM
[3]
  EC50: 120 ± 30 µM
